What was measured:
[1] = biological target: T1, Ba/F3 cells CD74-ROS1 wild-type (wt) (Homo sapiens, UniProt P08922); assay: Ba/F3 cell proliferation assay, CD74-ROS1 wild-type; assay type: cell-based; conditions: 72 hours, CellTiter-Glo
T1 construct: fusion of the C-terminus of ROS1 with the N-terminus of various partner proteins; host or cells: Ba/F3 (RIKEN), retroviral pMSCV-puro; the other entry of the earlier key: CD74 (P04233, HLA class II histocompatibility antigen gamma chain)
Outline: (§1)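 Viability read by CellTiter-Glo luminescence after 72 h exposure to 3-fold serial compound dilutions, four-parameter logistic fitting giving IC50.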

ROS1-G2032R = biological target: T2, ROS1-G2032R (Homo sapiens, UniProt P08922, G2032R); assay: Biochemical kinase assay, ROS1-G2032R kinase domain; conditions: apparent inhibitory constant, Morrison equation; ATP 2 mM in substrate solution; read-out: ROS1-G2032R Ki^app
T2 construct: purchased SignalChem R14-12BG
T2 sequence (P08922 1945-2222 G2032R limits assumed): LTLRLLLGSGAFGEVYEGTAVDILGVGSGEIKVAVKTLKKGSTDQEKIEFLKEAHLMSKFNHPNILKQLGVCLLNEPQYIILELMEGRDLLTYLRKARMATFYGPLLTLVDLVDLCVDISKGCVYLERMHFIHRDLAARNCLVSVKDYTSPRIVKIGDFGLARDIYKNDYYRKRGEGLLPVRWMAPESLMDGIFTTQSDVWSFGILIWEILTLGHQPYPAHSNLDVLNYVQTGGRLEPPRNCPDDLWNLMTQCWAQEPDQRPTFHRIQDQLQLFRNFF
Outline: (§2)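 Kinetic read: 485 nm, 2-min intervals, 120 min, 30 °C. Substrate mix — ATP 2 mM, AQT0101 26 μM, HEPES 50 mM pH 7.5, MgCl2 10 mM. Output: Ki^app, Morrison equation.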

ALK L1196M/G1202R = biological target: T3, ALK L1196M/G1202R (Homo sapiens, UniProt Q9UM73, G1202R/L1196M); assay: Biochemical kinase assay, ALK L1196M/G1202R kinase domain; conditions: apparent inhibitory constant, Morrison equation; ATP 2 mM in substrate solution; read-out: ALK-L1196M-G1202R Ki^app
T3 construct: purchased SignalChem A19-12NG
T3 sequence (Q9UM73 1116-1392 L1196M/G1202R limits assumed): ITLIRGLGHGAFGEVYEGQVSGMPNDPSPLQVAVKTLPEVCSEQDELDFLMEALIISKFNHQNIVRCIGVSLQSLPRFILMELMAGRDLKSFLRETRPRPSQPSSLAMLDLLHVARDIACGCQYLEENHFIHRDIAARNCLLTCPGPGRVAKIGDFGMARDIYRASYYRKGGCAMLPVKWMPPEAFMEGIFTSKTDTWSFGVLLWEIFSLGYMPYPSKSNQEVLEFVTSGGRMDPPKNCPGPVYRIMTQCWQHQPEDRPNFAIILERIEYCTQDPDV
Outline: (§3)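 Compound in DMSO added first, then substrate solution (ATP 2 mM; AQT0101 or AQT0104, 26 μM; pH 7.5 HEPES, 10 mM MgCl2), then kinase solution with enzyme at 0.5–3 nM depending on construct. Kinetic read every 2 min for 120 min at 30° C; Ki^app by Morrison regression.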

ROS1-wt = biological target: T4, ROS1-wt (Homo sapiens, UniProt P08922); assay: Biochemical kinase assay, ROS1-wt kinase domain; conditions: apparent inhibitory constant, Morrison equation; ATP 2 mM in substrate solution; read-out: ROS1-wt Ki^app
T4 construct: purchased Carna 08-163
T4 sequence (P08922 1945-2222 limits assumed): as the sequence (P08922 1945-2222 G2032R limits assumed) above, with R88G counted along it
Outline: as §2

[2] = biological target: T5, Ba/F3 cells EML4-ALK L1196M/G1202R (variant 1) (Homo sapiens, UniProt Q9UM73, G1202R/L1196M); assay: Ba/F3 cell proliferation assay, EML4-ALK L1196M/G1202R (variant 1); assay type: cell-based; conditions: 72 hours, CellTiter-Glo
T5 construct: echinoderm microtubule-associated protein-like 4 (EML4) gene and the ALK tyrosine kinase domain; host or cells: Ba/F3 (RIKEN), retroviral pMSCV-puro; the other entry of the earlier key: EML4 (Q9HC35, Echinoderm microtubule-associated protein-like 4)
T5 sequence (Q9UM73 with tags, fused parts or gaps L1196M/G1202R): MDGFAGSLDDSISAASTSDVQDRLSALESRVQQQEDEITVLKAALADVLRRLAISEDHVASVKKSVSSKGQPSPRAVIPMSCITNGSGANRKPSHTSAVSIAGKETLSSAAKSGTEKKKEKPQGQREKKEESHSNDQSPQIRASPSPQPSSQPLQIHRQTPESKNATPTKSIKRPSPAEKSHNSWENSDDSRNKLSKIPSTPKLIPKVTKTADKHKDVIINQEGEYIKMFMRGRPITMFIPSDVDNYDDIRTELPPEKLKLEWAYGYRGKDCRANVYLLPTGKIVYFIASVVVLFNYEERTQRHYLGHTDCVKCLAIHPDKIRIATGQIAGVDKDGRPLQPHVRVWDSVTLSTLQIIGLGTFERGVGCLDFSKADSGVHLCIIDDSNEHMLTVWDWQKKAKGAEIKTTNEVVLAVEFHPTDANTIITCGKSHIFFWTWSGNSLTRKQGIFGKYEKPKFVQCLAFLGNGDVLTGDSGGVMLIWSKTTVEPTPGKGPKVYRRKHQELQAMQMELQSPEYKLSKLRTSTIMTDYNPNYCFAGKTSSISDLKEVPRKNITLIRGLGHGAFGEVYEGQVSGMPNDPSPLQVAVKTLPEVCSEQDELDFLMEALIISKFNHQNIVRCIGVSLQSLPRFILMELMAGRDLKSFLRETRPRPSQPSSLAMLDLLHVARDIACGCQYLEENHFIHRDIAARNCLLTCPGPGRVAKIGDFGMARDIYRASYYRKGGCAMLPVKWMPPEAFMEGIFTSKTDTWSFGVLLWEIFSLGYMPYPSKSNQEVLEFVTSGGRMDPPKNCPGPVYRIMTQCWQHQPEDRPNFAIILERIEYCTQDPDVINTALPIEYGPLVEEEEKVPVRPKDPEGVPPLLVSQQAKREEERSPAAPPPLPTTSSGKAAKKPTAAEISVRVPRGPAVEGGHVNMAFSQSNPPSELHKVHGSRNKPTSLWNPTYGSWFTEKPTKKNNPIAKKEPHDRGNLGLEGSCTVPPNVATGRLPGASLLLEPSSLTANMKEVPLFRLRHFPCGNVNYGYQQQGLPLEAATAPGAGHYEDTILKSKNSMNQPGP
Outline: (§4)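 Stable fusion-expressing Ba/F3 clones, 1,000 cells/well. Compounds for 72 h, CellTiter-Glo readout; IC50 by 4-parameter logistic regression.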

[3] = tested on: TPM3-NTRK1-wt IC50 / primary target IC50 (e.g. CD74-ROS1-wt); assay: TRKA selectivity in Ba/F3 cells (TRKA potency divided by primary target potency); assay type: cell-based; conditions: for TPM3-NTRK1-wt/CD74-ROS1-G2032R selectivity ratio: TRKA potency / CD74-ROS1-G2032R potency; for TPM3-NTRK1-wt/CD74-ROS1-wt selectivity ratio: TRKA potency / CD74-ROS1-wt potency; for TPM3-NTRK1-wt/EML4-ALK-L1196M-G1202R selectivity ratio: TRKA potency / EML4-ALK-L1196M-G1202R potency; for TPM3-NTRK1-wt/EML4-ALK-wt selectivity ratio: TRKA potency / EML4-ALK-wt potency
Description: TRKA selectivity was calculated by dividing a compound's TRKA potency by its primary target potency (e.g. TPM3-NTRK1-wt IC50/CD74-ROS1-wt IC50). Compound selectivity can be interpreted by binning ratio values: bin A for very high selectivity, ratio >30-fold; bin B for high selectivity, ratio >10-fold; bin C for moderate selectivity, ratio ≥1; and bin D for low selectivity, ratio <1. […] (nd=not determined).

Ba/F3 cells TPM3-TRKA = biological target: T6, Ba/F3 cells TPM3-TRKA (Homo sapiens, UniProt P04629); assay: Ba/F3 cell proliferation assay, TPM3-TRKA; assay type: cell-based; conditions: 72 hours, CellTiter-Glo, read-out: TPM3-NTRK1-wt IC50
T6 construct: host or cells: Ba/F3 (RIKEN), retroviral pMSCV-puro; the other entry of the earlier key: TPM3 (P06753, Tropomyosin alpha-3 chain)
T6 sequence (P04629 510-796 limits assumed): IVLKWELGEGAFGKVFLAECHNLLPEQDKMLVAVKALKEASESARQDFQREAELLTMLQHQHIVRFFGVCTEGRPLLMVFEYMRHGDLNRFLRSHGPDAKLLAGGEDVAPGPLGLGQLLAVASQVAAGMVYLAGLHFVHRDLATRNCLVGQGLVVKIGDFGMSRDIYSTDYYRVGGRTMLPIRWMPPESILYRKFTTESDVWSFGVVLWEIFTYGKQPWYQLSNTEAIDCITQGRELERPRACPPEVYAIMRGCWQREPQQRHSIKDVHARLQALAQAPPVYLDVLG
Outline: as §4

[4] = biological target: T7, Ba/F3 cells EML4-ALK wt (variant 1) (Homo sapiens, UniProt Q9UM73); assay: Ba/F3 cell proliferation assay, EML4-ALK wt (variant 1); assay type: cell-based; conditions: 72 hours, CellTiter-Glo
T7 construct: echinoderm microtubule-associated protein-like 4 (EML4) gene and the ALK tyrosine kinase domain; host or cells: Ba/F3 (RIKEN), retroviral pMSCV-puro; the other entry of the earlier key: EML4 (Q9HC35, Echinoderm microtubule-associated protein-like 4)
T7 sequence (Q9UM73 with tags, fused parts or gaps): as the sequence (Q9UM73 with tags, fused parts or gaps L1196M/G1202R) above, with M635L, R641G counted along it
Outline: as §4

[5] = biological target: T8, Ba/F3 cells CD74-ROS1 G2032R (Homo sapiens, UniProt P08922, G2032R); assay: Ba/F3 cell proliferation assay, CD74-ROS1 G2032R; assay type: cell-based; conditions: 72 hours, CellTiter-Glo
T8 construct: fusion of the C-terminus of ROS1 with the N-terminus of various partner proteins; host or cells: Ba/F3 (RIKEN), retroviral pMSCV-puro; the other entry of the earlier key: CD74 (P04233, HLA class II histocompatibility antigen gamma chain)
T8 sequence (P08922 1883-2347 G2032R limits assumed): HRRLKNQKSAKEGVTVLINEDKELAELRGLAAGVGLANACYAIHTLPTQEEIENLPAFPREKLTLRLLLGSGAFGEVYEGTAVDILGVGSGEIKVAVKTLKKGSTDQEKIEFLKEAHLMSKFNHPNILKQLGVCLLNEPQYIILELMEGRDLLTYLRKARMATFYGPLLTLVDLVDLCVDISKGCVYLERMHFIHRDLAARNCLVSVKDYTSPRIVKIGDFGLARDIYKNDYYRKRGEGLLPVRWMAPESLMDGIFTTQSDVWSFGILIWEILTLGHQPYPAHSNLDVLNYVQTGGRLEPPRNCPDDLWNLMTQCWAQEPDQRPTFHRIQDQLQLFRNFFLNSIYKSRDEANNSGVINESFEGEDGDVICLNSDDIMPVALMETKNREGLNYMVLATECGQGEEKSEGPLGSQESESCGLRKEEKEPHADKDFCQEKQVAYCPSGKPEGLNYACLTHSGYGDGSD
Outline: as §1

TRKA-wt = biological target: T9, TRKA-wt (Homo sapiens, UniProt P04629); assay: Biochemical kinase assay, TRKA-wt kinase domain; conditions: apparent inhibitory constant, Morrison equation; ATP 2 mM in substrate solution; read-out: TRKA-wt Ki^app
T9 construct: or TRKA-wt (1 nM, BPS Bio, 40280) kinase domains in buffer; purchased BPS Bio 40280
T9 sequence (P04629 510-781 limits assumed): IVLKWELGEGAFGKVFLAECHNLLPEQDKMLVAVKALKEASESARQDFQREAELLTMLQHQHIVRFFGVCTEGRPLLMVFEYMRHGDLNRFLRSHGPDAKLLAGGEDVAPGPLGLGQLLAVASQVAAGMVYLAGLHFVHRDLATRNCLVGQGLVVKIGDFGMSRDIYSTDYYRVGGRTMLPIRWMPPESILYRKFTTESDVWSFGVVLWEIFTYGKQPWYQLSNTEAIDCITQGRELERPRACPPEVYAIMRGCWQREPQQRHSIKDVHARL
Outline: as §3

ALK-wt = biological target: T10, ALK-wt (Homo sapiens, UniProt Q9UM73); assay: Biochemical kinase assay, ALK-wt kinase domain; conditions: apparent inhibitory constant, Morrison equation; ATP 2 mM in substrate solution; read-out: ALK-wt Ki^app
T10 construct: purchased Carna 08-518
T10 sequence (Q9UM73 1116-1392 limits assumed): as the sequence (Q9UM73 1116-1392 L1196M/G1202R limits assumed) above, with M81L, R87G counted along it
Outline: as §3

T1 sequence (P08922 1883-2347 limits assumed): as the sequence (P08922 1883-2347 G2032R limits assumed) above, with R150G counted along it

Row | Structure (SMILES) | IC50 [1] | Ki (ROS1-G2032R) | Ki (ALK L1196M/G1202R) | Ki (ROS1-wt) | IC50 [2] | TPM3-NTRK1-wt/CD74-ROS1-G2032R selectivity ratio [3] | TPM3-NTRK1-wt/CD74-ROS1-wt selectivity ratio [3] | TPM3-NTRK1-wt/EML4-ALK-L1196M-G1202R selectivity ratio [3] | TPM3-NTRK1-wt/EML4-ALK-wt selectivity ratio [3] | IC50 (Ba/F3 cells TPM3-TRKA) | IC50 [4] | IC50 [5] | Ki (TRKA-wt) | Ki (ALK-wt)
1 | C[C@H]1Oc2cc(cnc2N)-c2c(cnn2C2CCC2)Cn2nncc2-c2ccc(F)cc21 [Example 7, (19R)-3-cyclobutyl-16-fluoro-19-methyl-20-oxa-3,4,8,9,10,23-hexaazapentacyclo[19.3.1.0^2,^6.0^8,^12.0^13,^18]pentacosa-1(24),2(6),4,9,11,13,15,17,21(25),22-decaen-22-amine] | 0.1 to 50 nM | 50 to 500 nM | < 50 nM | < 50 nM | 50 to 500 nM | A (bin A for very high selectivity, ratio >30-fold) | A (bin A for very high selectivity, ratio >30-fold) | B (bin B for high selectivity, ratio >10-fold) | A (bin A for very high selectivity, ratio >30-fold) | > 500 nM | 0.1 to 50 nM | 0.1 to 50 nM | > 500 nM | < 50 nM
2 | C[C@H]1Oc2cc(cnc2N)-c2c(C3CCC3)nnn2Cc2nn(C)nc2-c2ccc(F)cc21 [Example 30, (19R)-3-cyclobutyl-16-fluoro-10,19-dimethyl-20-oxa-4,5,6,9,10,11,23-heptaazapentacyclo[19.3.1.0^2,^6.0^8,^12.0^13,^18]pentacosa-1(24),2,4,8,11,13,15,17,21(25),22-decaen-22-amine] | 0.1 to 50 nM | < 50 nM | < 50 nM | < 50 nM | 50 to 500 nM | A (bin A for very high selectivity, ratio >30-fold) | A (bin A for very high selectivity, ratio >30-fold) | C (bin C for moderate selectivity, ratio ≥1) | A (bin A for very high selectivity, ratio >30-fold) | > 500 nM | 0.1 to 50 nM | 0.1 to 50 nM | > 500 nM | < 50 nM
3 | C[C@H]1Oc2cc(cnc2N)-c2c(cnn2CC(F)F)Cn2nc(Cl)cc2-c2ccc(F)cc21 [Example 55, (19R)-10-chloro-3-(2,2difluoroethyl)-16-fluoro-19-methyl-20-oxa-3,4,8,9,23-pentaazapentacyclo[19.3.1.0^2,^6.0^8,^12.0^13,^18]pentacosa-1(24),2(6),4,9,11,13,15,17,21(25),22-decaen-22-amine] | 0.1 to 50 nM | < 50 nM | 50 to 500 nM | < 50 nM | 50 to 500 nM | A (bin A for very high selectivity, ratio >30-fold) | A (bin A for very high selectivity, ratio >30-fold) | C (bin C for moderate selectivity, ratio ≥1) | A (bin A for very high selectivity, ratio >30-fold) | > 500 nM | 0.1 to 50 nM | 0.1 to 50 nM | > 500 nM | < 50 nM
4 | CCc1nsc2c1-c1cnc(N)c(c1)O[C@H](C)c1cc(F)ccc1-c1ncnn1C2 [Example 44, (19R)-3-ethyl-16-fluoro-19methyl-20-oxa-5-thia-4,8,9,11,23-pentaazapentacyclo[19.3.1.0^2,^6.0^8,^12.0^13,^18]pentacosa-1(24),2(6),3,9,11,13,15,17,21(25),22-decaen-22-amine] | 0.1 to 50 nM | 50 to 500 nM | 50 to 500 nM | < 50 nM | 50 to 500 nM | A (bin A for very high selectivity, ratio >30-fold) | A (bin A for very high selectivity, ratio >30-fold) | C (bin C for moderate selectivity, ratio ≥1) | A (bin A for very high selectivity, ratio >30-fold) | > 500 nM | 0.1 to 50 nM | 0.1 to 50 nM | > 500 nM | < 50 nM
5 | Cc1nn(CC2CC2)c2c1Cc1nn(C)nc1-c1ccc(F)cc1COc1cc-2cnc1N [Example 71, 3-(cyclopropylmethyl)-16-fluoro-5,10-dimethyl-20-oxa-3,4,9,10,11,23-hexaazapentacyclo[19.3.1.0^2,^6.0^8,^12.0^13,^18]pentacosa-1(24),2(6),4,8,11,13,15,17,21(25),22-decaen-22-amine] | 0.1 to 50 nM | 50 to 500 nM | < 50 nM | < 50 nM | 50 to 500 nM | A (bin A for very high selectivity, ratio >30-fold) | A (bin A for very high selectivity, ratio >30-fold) | B (bin B for high selectivity, ratio >10-fold) | A (bin A for very high selectivity, ratio >30-fold) | > 500 nM | 50 to 500 nM | 0.1 to 50 nM | > 500 nM | < 50 nM

From patent US12054498B2, “Heteroaromatic macrocyclic ether chemotherapeutic agents” (Nuvalent, Inc., priority 2020, dated 2024)
